Broadly, the Ki is the equilibrium dissociation constant of an inhibitor or competing ligand from its target.

In the assay the target is Vasopressin V1a receptor (Homo sapiens, UniProt P37288). Briefly: Pharmacological Assay: The human V1a receptor was cloned by RT-PCR from total human liver RNA. The coding sequence was subcloned in an expression vector after sequencing to confirm the identity of the amplified sequence. […] Cell membranes were prepared from HEK293 cells transiently transfected with the expression vector and grown in 20 liter fermenters with the following protocol. 50 g of cells are re-suspended in 30 ml freshly prepared ice cold Lysis buffer ([…] HEPES. 1 mM EDTA, 10 mM MgCl adjusted to pH=7.4+complete cocktail of protease inhibitor (Roche Diagnostics)). Homogenized with Polytron for 1 min and sonicated on ice for 2×2 minutes at 80% intensity (Vibracell sonicator). The preparation is centrifuged 20 min at 500 g at 4° C., the pellet is discarded and the supernatant centrifuged 1 hour at 43'000 g at 4° C. (19'000 rpm). The pellet is re-suspended in 12.5 ml Lysis buffer+12.5 ml Sucrose 20% and homogenized using a Polytron for 1-2 min. The protein concentration is determined by the Bradford method and aliquots are stored at −80° C. until use. For binding studies 60 mg Yttrium silicate SPA beads (Amersham) are mixed with an aliquot of membrane in binding buffer (50 mM Tris, 120 mM NaCl, 5 mM KCl, 2 mM CaCl, 10 mM MgCl) for 15 minutes with mixing. 50 μl of bead/membrane mixture is then added to each well of a 96 well plate, followed by […] of 4 nM 3H-Vasopressin (American Radiolabeled Chemicals). For total binding measurement 100 μl of binding buffer are added to the respective wells, for non-specific binding 100 μl of 8.4 mM cold vasopressin and for compound testing 100 μl of a serial dilution of each compound in 2% DMSO. The plate is incubated 1 h at room temperature, centrifuged 1 min at 1000 g and counted on a Packard Top-Count. Non-specific binding counts are subtracted from each well and data is normalized to the maximum specific binding set at 100%. To calculate an IC 50 the curve is fitted using a non-linear regression model (XLfit) and the K, is calculated using the Cheng-Prussoff equation.
Sequence of Vasopressin V1a receptor (P37288 whole entry): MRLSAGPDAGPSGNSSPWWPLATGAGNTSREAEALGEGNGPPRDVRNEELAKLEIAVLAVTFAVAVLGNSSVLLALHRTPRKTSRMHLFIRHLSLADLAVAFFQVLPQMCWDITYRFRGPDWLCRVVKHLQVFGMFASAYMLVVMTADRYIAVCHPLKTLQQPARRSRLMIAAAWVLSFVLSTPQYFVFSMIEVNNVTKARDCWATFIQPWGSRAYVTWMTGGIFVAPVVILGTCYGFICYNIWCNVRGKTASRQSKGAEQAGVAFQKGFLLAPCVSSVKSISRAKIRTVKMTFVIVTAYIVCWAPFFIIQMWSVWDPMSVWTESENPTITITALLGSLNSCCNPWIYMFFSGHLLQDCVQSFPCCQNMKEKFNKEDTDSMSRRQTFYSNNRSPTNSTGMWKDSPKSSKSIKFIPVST

Regarding `O=C1N=C(N2CCC3(CC2)OCc2ccccc23)OC12CCc1ccccc1C2` (centres undefined), the Ki is 1 nM. For the molecule `Cc1cc2c(cn1)COC21CCN(C2=NC(=O)C3(Cc4ccccc4C3)O2)CC1`, the Ki is 10 nM. Turning to `O=C1N=C(N2CCC3(CC2)OCc2ccccc23)OC12CCCc1ccccc12` (centres undefined), the Ki is 50.1 nM. For the molecule `O=C1N=C(N2CCC3(CC2)OCc2ccccc23)OC12Cc1ccc(Cl)cc1C2` (centres undefined), the inhibition constant Ki is 1 nM. In the case of `Cc1cc2c(cn1)C1(CCN(C3=NC(=O)C4(Cc5ccccc5C4)O3)CC1)OC2=O`, the Ki is 15.8 nM.

For the molecule `O=C1OC2(CCN(C3=NC(=O)C4(Cc5ccccc5C4)O3)CC2)c2cc(O)ccc21`, the Ki is 0.794 nM. `Cc1cc2c(cn1)C1(CCN(C3=NC(=O)C4(Cc5ccccc5C4)O3)CC1)OC2`: the Ki is 3.16 nM. As for `Cc1cc2c(cn1)C(=O)OC21CCN(C2=NC(=O)C3(Cc4ccccc4C3)O2)CC1`, the Ki is 12.6 nM. `O=C1OC2(CCN(C3=NC(=O)C4(Cc5ccccc5C4)O3)CC2)c2ccccc21`: the Ki was 1 nM.

Source of the values: ChEMBL document CHEMBL5729588, “Spiro-oxazolones” (2023).
